Test results from patent US11266626B2, “Reduction of ER-MAM-localized APP-C99 and methods of treating alzheimer's disease” (THE TRUSTEES OF COLUMBIA UNIVERSITY IN THE CITY OF NEW YORK, priority 2015, dated 2022).
Entries after “also recorded” stand apart in the source; their conditions may differ. Where a name gives a salt, the structure may show the parent alone.

Tests used:
APP = conditions: cited from earlier work; for Aβ: literature
AD mice = conditions: cited from earlier work
PS-DKO cells [1] = test: Staining of lipid droplets with LipidTox Green; type: cell-based, mouse; conditions: BI 100 nM, desipramine 10 μM, GW4869 5 μM, 12-16 h, Gleevec 10 μM
Experimental: Quantification of total cholesterol and cholesteryl esters was performed using the Cholesterol/Cholesteryl Ester Quantitation kit from Calbiochem (428901). Staining of lipid droplets Staining of lipid droplets was performed using HCS LipidTox™ Deep Green neutral lipid stain (Invitrogen H34475) according to the manufacturer's instructions. Lipid droplet staining was quantified using ImageJ. The different values represent the product of the intensity and the area covered by the fluorescent signal above background in every cell examined.
Staining of lipid droplets was performed using HCS LipidTox™ Deep Green neutral lipid stain (Invitrogen H34475) according to the manufacturer's instructions. Lipid droplet staining was quantified using ImageJ. The different values represent the product of the intensity and the area covered by the fluorescent signal above background in every cell examined.

TRPML1 = TRPML1 (Homo sapiens, UniProt Q9GZU1); conditions: Shen, D. et al.; cited from earlier work
Chain of TRPML1 (Q9GZU1 whole entry, species assumed): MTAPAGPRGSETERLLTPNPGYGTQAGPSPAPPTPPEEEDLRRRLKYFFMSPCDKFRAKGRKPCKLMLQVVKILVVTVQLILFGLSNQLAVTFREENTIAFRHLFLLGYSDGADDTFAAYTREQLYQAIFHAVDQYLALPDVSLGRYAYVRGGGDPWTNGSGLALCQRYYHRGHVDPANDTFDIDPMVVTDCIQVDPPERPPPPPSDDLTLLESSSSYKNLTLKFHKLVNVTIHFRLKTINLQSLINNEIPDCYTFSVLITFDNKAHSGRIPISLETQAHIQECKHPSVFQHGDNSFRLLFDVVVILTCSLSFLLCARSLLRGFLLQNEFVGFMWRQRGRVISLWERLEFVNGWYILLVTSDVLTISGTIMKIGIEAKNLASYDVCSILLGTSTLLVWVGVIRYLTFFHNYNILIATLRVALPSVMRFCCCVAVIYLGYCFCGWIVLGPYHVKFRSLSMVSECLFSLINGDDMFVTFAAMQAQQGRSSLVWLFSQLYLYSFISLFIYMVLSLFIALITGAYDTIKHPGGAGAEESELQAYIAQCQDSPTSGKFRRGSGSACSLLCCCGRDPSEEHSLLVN

γ-secretase = conditions: A2A-AR antagonists; Lu, J. et al.; cited from earlier work
PS-DKO cells [2] = test: Seahorse analysis of mitochondrial respiration (OCR); type: cell-based, mouse; conditions: BI 100 nM, myriocin 5 μM, TAPI-1 5 μM, 12-16 h, Aβ40:Aβ42 10:1, 6 ng/ml
Experimental: (§1) Respirometry of cultured cells was performed using the XF24e Extracellular Flux Analyzer (Seahorse Bioscience). Oxygen consumption was measured in basal conditions (Seahorse media with 25 mM glucose and 2 mM pyruvate) and after the sequential addition of 1 μM oligomycin (Complex V inhibitor), 0.75 μM FCCP (uncoupler) and 1 μM rotenone/1 μM antimycin A (Complex I and Complex III inhibitors respectively).
(§2) Respirometry of cultured cells was performed using the XF24e Extracellular Flux Analyzer (Seahorse Bioscience). Oxygen consumption was measured in basal conditions (Seahorse media with 25 mM glucose and 2 mM pyruvate) and after the sequential addition of 1 μM oligomycin (complex V inhibitor), 0.75 μM FCCP (uncoupler), and 1 μM rotenone/1 μM antimycin A (complex I and complex III inhibitors, respectively). All results were averages of five or more biological replicates. Every biological replicate consisted of three technical replicates. For every technical replicate, we plated equal number of cells (25,000 cell/well when MEFs were used, and 50,000 cells/well when human primary fibroblasts were analyzed). The number of cells was also counted after every respirometry assay to correct for cell death. All oxygen consumption (OCR) data were normalized by the number of viable cells or by protein quantity when isolated mitochondria were used.

[3] = Ghanbarabadi et al.; cited from earlier work
Aβ42:Aβ40 ratio = Aβ42:Aβ40 ratio (ELISA); type: cell-based; conditions: PS-mutant cells, desipramine
Experimental: Detection of Aβ40/Aβ42 levels in cell media was performed by ELISA following manufacturer's instructions (WAKO ELISA kit 294-64701 for Aβ40 and 292-64501 for Aβ42).

[4] = tested on: mitochondrial respiratory supercomplexes; test: Supercomplex analysis (blue-native gels, in-gel activity and western blot); type: cell-based, mouse
Experimental: Analysis and quantification of mitochondrial respiratory complexes by western blot and enzymatic in-gel activity were carried out as previously reported (Acin-Perez et al., 2008)
Analysis and quantification of mitochondrial respiratory complexes by Western blot and enzymatic in-gel activity were carried out as described (Acin-Perez et al, 2008).

PS-DKO cells [5] = test: Lipidomic analyses of membranes; type: cell-based, mouse; conditions: PS-DKO cells; BI 100 nM or myriocin 5 μM
Experimental: (§3) Lipid extracts were prepared via chloroform-methanol extraction, spiked with appropriate internal standards, and analyzed using a 6490 Triple Quadrupole LC/MS system (Agilent Technologies, Santa Clara, Calif.) as described previously (6, 7). Glycerophospholipids and sphingolipids were separated with normal-phase HPLC using an Agilent Zorbax Rx-Sil column (inner diameter 2.1×100 mm) under the following conditions: mobile phase A (chloroform:methanol:1 M ammonium hydroxide, 89.9:10:0.1, v/v) and mobile phase B (chloroform:methanol:water:ammonium hydroxide, 55:39.9:5:0.1, v/v); 95% A for 2 min, linear gradient to 30% A over 18 min and held for 3 min, and linear gradient to 95% A over 2 min and held for 6 min. Quantification of lipid species was accomplished using multiple reaction monitoring (MRM) transitions that were developed in earlier studies (6) in conjunction with referencing of appropriate internal standards: ceramide d18:1/17:0 and sphingomyelin d18:1/12:0 (Avanti Polar Lipids, Alabaster, Ala.).
as §3, with “Lipids were extracted from equal amounts of material (30 μg protein/sample). Lipid extracts” for “Lipid extracts”, “described previously (Chan et al., 2012). Glycerophospholipids and” for “described previously (6, 7). Glycerophospholipids and”, “hydroxide, 89.9:10:0.1, v/v/v) and mobile” for “hydroxide, 89.9:10:0.1, v/v) and mobile”, “hydroxide, 55:39.9:5:0.1, v/v/v); 95% A” for “hydroxide, 55:39.9:5:0.1, v/v); 95% A”, “earlier studies (Chan et al., 2012) in conjunction” for “earlier studies (6) in conjunction”, “Alabaster, Ala.). Values are represented as mole fraction with respect to total lipid (% molarity)” for “Alabaster, Ala.).”
Lipids were extracted from equal amounts of material (30 μg protein/sample). Lipid extracts were prepared via chloroform-methanol extraction, spiked with appropriate internal standards, and analyzed using a 6490 Triple Quadrupole LC/MS system (Agilent Technologies, Santa Clara, Calif.) as described previously (Chan et al, 2012). Glycerophospholipids and sphingolipids were separated with normal-phase HPLC using an Agilent Zorbax Rx-Sil column (inner diameter 2.1×100 mm) under the following conditions: mobile phase A (chloroform:methanol:1 M ammonium hydroxide, 89.9:10:0.1, v/v/v) and mobile phase B (chloroform:methanol:water:ammonium hydroxide, 55:39.9:5:0.1, v/v/v/v); 95% A for 2 min, linear gradient to 30% A over 18 min and held for 3 min, and linear gradient to 95% A over 2 min and held for 6 min. Quantification of lipid species was accomplished using multiple reaction monitoring (MRM) transitions that were developed in earlier studies (Chan et al, 2012) in conjunction with referencing of appropriate internal standards: ceramide d18:1/17:0 and sphingomyelin d18:1/12:0 (Avanti Polar Lipids, Alabaster, Ala., USA). Values are represented as mole fraction with respect to total lipid (% molarity). For this, lipid mass (in moles) of any specific lipid is normalized by the total mass (in moles) of all the lipids measured (Chan et al, 2012). In addition, all of our results were further normalized by protein content.

[6] = tested on: WT MEFs and presenilin-mutant (PS-DKO) cells; test: Filipin staining of free cholesterol; type: cell-based, mouse; conditions: presenilin-mutant (PS-DKO) cells; CsA 100 nM; SSO 250 nM
Experimental: Cells were washed in PBS and fixed in 3% paraformaldehyde at room temperature for 1 h. After washing in PBS three times, samples were incubated in 1.5 mg/ml glycine in 1×PBS to quench the paraformaldehyde and then incubated in 0.05 mg/ml of filipin in PBS/10% FBS for 2 h at room temperature. Free cholesterol signal was visualized in by microscopy and quantified by ImageJ.

APP-DKO cells = test: Seahorse analysis of mitochondrial respiration (OCR); type: cell-based, mouse; conditions: WT and APP-DKO cells, Aβ42 oligomers 0, 5, 10 μM, 24 h, effect only at 10 μM
Experimental: as §1
(§4) To analyze the effect of Aβ addition, a mix of Aβ40/Aβ42 at a ratio 10:1 was added to the cultured cells to a final concentration of 6000 pg/ml for 24 h. For Aβ42 oligomer formation, 5 mM of Aβ42 in DMSO was diluted to 100 μM in ice-cold media, vortexed for 30 seconds, and incubated at 4° C. for 24 h. Aβ42 Oligomers were added to the cultured cells to a final concentration of 5 or 10 μM for 24 h.
as §2
as §4, with “6,000” for “6000”, “s,” for “seconds,”, “Aβ42 Oligomers were added to the cultured cells to a final concentration of 5 or 10 μM for 24 h.” left out

For CCCCCCCC[C@H](SCCCCCC)C(=O)Nc1c(SC)cc(C)nc1SC [CP-113,818], the Aβ (APP) is given as “reduces Aβ”.
For CC(C)(C)NCC(O)c1cc(Cl)c(N)c(Cl)c1 (stereo not drawn) [Clenbuterol], the “Thr668p (APP phosphorylated at Thr668)” value (APP; Chai, G-s. et al.) is listed as “reduced Thr668p”, the α-secretase (APP; Chai, G-s. et al.) is listed as “increased α-secretase” and the Aβ (APP) is listed as “decreased Aβ”.
For O=C1[C@H](CC[C@H](O)c2ccc(F)cc2)[C@@H](c2ccc(O)cc2)N1c1ccc(F)cc1 [Ezetimibe], the cognition / memory (AD mice) is given as “improves memory in AD mice”.
In the case of O=C(/C=C/c1ccc(/C=C/C(=O)Nc2ccc(C3=NCCN3)cc2)cc1)Nc1ccc(C2=NCCN2)cc1 [GW4869], the “number of lipid droplets (LDs)” value (PS-DKO cells [1]) is reported as “reduced the accumulation of lipid droplets in PS-DKO cells to near-control levels; also recorded: reduced lipid droplet formation”.
For Cc1ccc(NC(=O)c2ccc(CN3CCN(C)CC3)cc2)cc1Nc1nccc(-c2cccnc2)n1 [Gleevec, imatinib mesylate], the “number of lipid droplets (LDs)” value (PS-DKO cells [1]) was “significant reduction of LDs”.
In the case of CC1CC(C)(C)N(C(=O)CN2C(=O)c3ccccc3C2=O)c2ccccc21 (stereo not drawn) [ML-SA1], the “TRPML1-mediated lysosomal Ca2+ release” value (TRPML1) is listed as “enhances TRPML1-mediated lysosomal Ca^2+ release” and the cholesterol (TRPML1) is listed as “reduces cholesterol”.
For O=C(O)CCCc1ccccc1 [PBA, phenylbutyric acid], the cholesterol defects (AD mice) is given as “rescues cholesterol defects”, the cognition / memory (AD mice) is given as “rescues cholesterol defects [4-6] and cognition” and the “α- and γ-cleavage of APP” value (APP; reference [1]) is given as “stimulates both α- and γ-cleavage of APP”.
For COCCOc1ccc(N2CCN(CCn3ncc4c3nc(N)n3nc(-c5ccco5)nc43)CC2)cc1 [Preladenant], the Aβ42 (γ-secretase) is given as “increased Aβ42” and the γ-secretase activity (γ-secretase) is given as “increased γ-secretase activity”.
In the case of CC(C)C[C@H](CC(=O)NO)C(=O)N[C@@H](Cc1ccc2ccccc2c1)C(=O)N[C@@H](C)C(=O)NCCN [TAPI-1], the “mitochondrial respiration (initial oxygen consumption rate, OCR)” value (PS-DKO cells [2]) is reported as “unaffected”.
In the case of COc1ccc(N2CCOCC2)c2sc(NC(=O)N3CCC(C)(O)CC3)nc12 [Tozadenant], the Aβ42 (γ-secretase) is listed as “increased Aβ42” and the γ-secretase activity (γ-secretase) is listed as “increased γ-secretase activity”.
For CC(C)=CCC/C(C)=C/COc1ccc2ccc(=O)oc2c1 [auraptene, 7-geranyloxycoumarin], the memory [3] is given as “enhances memory”.
For CNCCCN1c2ccccc2CCc2ccccc21 [desipramine], the “number of lipid droplets (LDs)” value (PS-DKO cells [1]) was “reduced the accumulation of lipid droplets in PS-DKO cells to near-control levels; also recorded: reduced lipid droplet formation”, the “Aβ42:Aβ40 ratio” value (Aβ42:Aβ40 ratio) was “reduced the Aβ42:Aβ40 ratio” and the “Aβ42:Aβ40 ratio” value (Aβ42:Aβ40 ratio; listed as Desipramine) was “significantly reduced the Aβ42:Aβ40 ratio”.
In the case of CCCCCCC(=O)CCCCCC/C=C/C[C@@H](O)[C@H](O)[C@@](N)(CO)C(=O)O [myriocin], the “activity of supercomplexes I+III+IV, I+III and III+IV (in-gel complex I and IV activity)” value ([4]; mitochondria from PS-DKO cells incubated with BI or myriocin) is reported as “rescued”, the “assembly of respiratory supercomplexes (blue-native PAGE western blot)” value ([4]; mitochondria from PS-DKO cells, anti-complex I and III antibodies) is reported as “increases the assembly of supercomplexes I+III and I+III+IV” and the “mitochondrial respiration (initial oxygen consumption rate, OCR)” value (PS-DKO cells [2]) is reported as “reversed the respiratory defect; also recorded: rescued the bioenergetic defect; also recorded: reversed the bioenergetic deficits in these cells”. The ceramide levels (PS-DKO cells [5]) was “significant reductions in ceramide content” and the sphingomyelin levels (PS-DKO cells [5]) was “slight decreases in sphingomyelin”.
In the case of CCCCCCCC/C=C\CCCCCCCC(=O)ON1C(=O)CC(S(=O)(=O)O)C1=O (stereo not drawn) [sulfo-N-succinimidyl oleate], the “free cholesterol levels (filipin staining)” value [6] is reported as “reduces cholesterol levels in presenilin-mutant cells; also recorded: equally marked reduction in cellular free cholesterol”.
For “Aβ42 oligomers: oligomers formed from synthetic Aβ42 peptide, added at 5 or 10 μM”, the “mitochondrial respiration (OCR)” value (APP-DKO cells) was “slightly decreased” and the “mitochondrial respiration (OCR)” value (APP-DKO cells; listed as Aβ oligomers) was “had little effect on respiration”.
For cyclosporin A, the “free cholesterol levels (filipin staining)” value [6] was “reduces cholesterol levels in presenilin-mutant cells; also recorded: the increased level of cholesterol seen in PS-mutant cells was reversed”.
